Data published in ChEMBL document CHEMBL2021772, “Synthesis and antitumor-evaluation of 1,3,4-thiadiazole-containing benzisoselenazolone derivatives” (Bioorg Med Chem Lett, 2012).
Values belong to the compound of their own block, whether it stands above or below them.

Columns and labels:
[1] = Antiproliferative activity against human […] cells after 48 hrs by CCK-8 assay; type: functional, cell-based
[2] = system: MCF7; test: Antiproliferative activity against human MCF7 cells after 48 hrs by CCK-8 assay; type: functional, cell-based; conditions: MCF7, 48 h
[3] = system: A549; test: Antiproliferative activity against human A549 cells after 48 hrs by CCK-8 assay; type: functional, cell-based; conditions: A549, 48 h
[4] = Toxicity in rat; type: organism-based; conditions: in vivo

SMILES: COc1ccccc1-c1nnc(-n2[se]c3ccccc3c2=O)s1
IC50 [1]: 14.3 µM
IC50 [2]: 3.92 µM
IC50 [3]: 3.12 µM

SMILES: O=c1c2ccccc2[se]n1-c1nnc(-c2ccccc2[N+](=O)[O-])s1
IC50 [1]: 22.5 µM
IC50 [2]: 31.2 µM
IC50 [3]: 11.4 µM

SMILES: O=c1c2ccccc2[se]n1-c1nnc(-c2ccccc2)s1
IC50 [1]: 20.5 µM
IC50 [2]: 4.02 µM
IC50 [3]: 2.48 µM

SMILES: O=c1c2ccccc2[se]n1-c1nnc(-c2ccc(Cl)cc2)s1
IC50 [1]: 24.4 µM
IC50 [2]: 19.4 µM
IC50 [3]: 10.4 µM

SMILES: Cc1ccccc1-c1nnc(-n2[se]c3ccccc3c2=O)s1
IC50 [1]: 19.4 µM
IC50 [2]: 36.8 µM
IC50 [3]: 18.6 µM

SMILES: O=c1c2ccccc2[se]n1-c1nnc(-c2ccc(F)cc2)s1
IC50 [1]: 42.9 µM
IC50 [2]: 61.5 µM
IC50 [3]: 21.1 µM

IC50 [2]: 37.8 µM
IC50 [3]: 17.9 µM
SMILES: O=c1c2ccccc2[se]n1-c1nnc(-c2cc([N+](=O)[O-])cc([N+](=O)[O-])c2)s1
IC50 [1]: 21.6 µM

SMILES: O=c1c2ccccc2[se]n1-c1ccccc1 [EBSELEN]
LD50 [4]: 6180 mg/kg
IC50 [1]: 18.3 µM
IC50 [2]: 15 µM
IC50 [3]: 3.75 µM

SMILES: COc1ccc(-c2nnc(-n3[se]c4ccccc4c3=O)s2)cc1
IC50 [1]: 16.4 µM
IC50 [2]: 10 µM
IC50 [3]: 5.93 µM

IC50 [2]: 3.44 µM
IC50 [3]: 3.24 µM
SMILES: COc1cc(-c2nnc(-n3[se]c4ccccc4c3=O)s2)cc(OC)c1OC
IC50 [1]: 7.15 µM

SMILES: Cc1cccc(-c2nnc(-n3[se]c4ccccc4c3=O)s2)c1
IC50 [1]: 17.8 µM
IC50 [2]: 19.9 µM
IC50 [3]: 14.8 µM

SMILES: O=c1c2ccccc2[se]n1-c1nnc(-c2cccc([N+](=O)[O-])c2)s1
IC50 [1]: 27.3 µM
IC50 [2]: 29.2 µM
IC50 [3]: 16.1 µM

SMILES: O=c1c2ccccc2[se]n1-c1nnc(-c2ccccc2Cl)s1
IC50 [1]: 40.2 µM
IC50 [2]: 4.43 µM
IC50 [3]: 10.1 µM

SMILES: Cc1ccc(-c2nnc(-n3[se]c4ccccc4c3=O)s2)cc1
IC50 [1]: 16.6 µM
IC50 [2]: 18.7 µM
IC50 [3]: 13.4 µM

SMILES: O=c1c2ccccc2[se]n1-c1nnc(-c2ccc(Br)cc2)s1
IC50 [1]: 68.2 µM
IC50 [2]: 43.3 µM
IC50 [3]: 39.1 µM

SMILES: O=c1c2ccccc2[se]n1-c1nnc(-c2ccccc2Br)s1
IC50 [1]: 27.4 µM
IC50 [2]: 59.4 µM
IC50 [3]: 12.7 µM
